We go through five compounds from patent US20070259841A1, “Combinations for the treatment of rheumatoid arthritis” (CombinatoRx, Incorporated, priority 2002, published 2007).

In series [1] the test system is TNF-α secretion. Nature of the series: TNF-α ELISA: TNF-alpha suppression in PMA/ionomycin-induced white blood cells. The conditions noted are these: for TNF-α inhibition achievable by steroid alone: even at very high concentrations.
For series [2] the following is noted: 200 mg/day orally; cited from earlier work.

Regarding `C[C@@H]1C[C@H]2[C@@H]3CCC4=CC(=O)C=C[C@]4(C)[C@@]3(F)[C@@H](O)C[C@]2(C)[C@@]1(O)C(=O)CO` [Dexamethasone, dexamethasone], the “TNF-alpha Suppression” value is on record as 23.96% in series [1] (Dexamethasone 1.0 nM, Econazole 0.000 μM); 33.10% in series [1] (Dexamethasone 2.0 nM, Econazole 0.000 μM); 36.87% in series [1] (Dexamethasone 4.0 nM, Econazole 0.000 μM); 40.33% in series [1] (Dexamethasone 8.0 nM, Econazole 0.000 μM); 44.12% in series [1] (Dexamethasone 16.0 nM, Econazole 0.000 μM); 51.26% in series [1] (Dexamethasone 32.0 nM, Econazole 0.000 μM). Further, the “TNF-alpha Suppression” value in series [1] (Dexamethasone 64.0 nM, Econazole 0.000 μM) was 54.35%; in series [1] (Dexamethasone 127.0 nM, Econazole 0.000 μM), 52.97%; in series [1] (Dexamethasone 255.0 nM, Econazole 0.000 μM) it was 59.93%. Besides, in series [1] (dexamethasone alone), the “TNF-α inhibition achievable by steroid alone” value is 60%. Moreover, the “suppression of TNF-α secretion” value in series [1] (single agent concentration of 4 nM, PMA and ionomycin stimulated PBMCs) is recorded as 40%.
For `CC(=O)N1CCN(c2ccc(OCC3COC(Cn4ccnc4)(c4ccc(Cl)cc4Cl)O3)cc2)CC1` (stereo not shown) [ketoconazole], in series [2], the serum concentration result is given as “about 3.2 micrograms”.
In the case of `CC(=O)OCC(=O)[C@@]1(OC(C)=O)[C@@H](C)C[C@H]2[C@@H]3C[C@H](F)C4=CC(=O)C=C[C@]4(C)[C@@]3(F)[C@@H](O)C[C@@]21C` [Diflorasone, diflorasone], the “TNF-alpha Suppression” value in series [1] (Diflorasone 0.5 nM, Clotrimazole 0.000 μM) is on record as 9.84%; in series [1] (Diflorasone 0.9 nM, Clotrimazole 0.000 μM) it was 16.12%; in series [1] (Diflorasone 1.9 nM, Clotrimazole 0.000 μM), 21.93%; in series [1] (Diflorasone 3.8 nM, Clotrimazole 0.000 μM), 29.01%; in series [1] (Diflorasone 7.5 nM, Clotrimazole 0.000 μM) it was 36.86%; in series [1] (Diflorasone 15.0 nM, Clotrimazole 0.000 μM), 41.37%. The “TNF-alpha Suppression” value amounted to 49.96% in series [1] (Diflorasone 30.0 nM, Clotrimazole 0.000 μM); 48.95% in series [1] (Diflorasone 60.0 nM, Clotrimazole 0.000 μM); 47.05% in series [1] (Diflorasone 120.0 nM, Clotrimazole 0.000 μM). Moreover, the “TNF-α inhibition achievable by steroid alone” value in series [1] (diflorasone alone) came to 47%. For the same compound, the “suppression of TNF-α secretion” value in series [1] (single agent concentration of 3.8 nM, P/I stimulated PBMCs) is given as 29%.
For `Clc1ccc(COC(Cn2ccnc2)c2ccc(Cl)cc2Cl)cc1` (stereo not shown) [Econazole, econazole], the “TNF-alpha Suppression” value turned out to be 13.30% in series [1] (Dexamethasone 0.0 nM, Econazole 0.035 μM); 20.05% in series [1] (Dexamethasone 0.0 nM, Econazole 0.070 μM); 14.11% in series [1] (Dexamethasone 0.0 nM, Econazole 0.141 μM); 16.99% in series [1] (Dexamethasone 0.0 nM, Econazole 0.281 μM); 38.71% in series [1] (Dexamethasone 0.0 nM, Econazole 1.124 μM); 43.90% in series [1] (Dexamethasone 0.0 nM, Econazole 2.249 μM). Further, the “TNF-alpha Suppression” value is on record as 53.07% in series [1] (Dexamethasone 0.0 nM, Econazole 4.497 μM) and 70.06% in series [1] (Dexamethasone 0.0 nM, Econazole 8.995 μM).
Regarding `Clc1ccccc1C(c1ccccc1)(c1ccccc1)n1ccnc1` [Clotrimazole, clotrimazole], the “TNF-alpha Suppression” value in series [1] (Diflorasone 0.0 nM, Clotrimazole 0.008 μM) is listed as 4.92%; in series [1] (Diflorasone 0.0 nM, Clotrimazole 0.014 μM) it was 5.86%; in series [1] (Diflorasone 0.0 nM, Clotrimazole 0.031 μM) it was 12.47%; in series [1] (Diflorasone 0.0 nM, Clotrimazole 0.063 μM), 11.43%; in series [1] (Diflorasone 0.0 nM, Clotrimazole 0.125 μM), 18.40%; in series [1] (Diflorasone 0.0 nM, Clotrimazole 0.250 μM) it was 14.29%. The “TNF-alpha Suppression” value in series [1] (Diflorasone 0.0 nM, Clotrimazole 0.500 μM) is on record as 20.07%; in series [1] (Diflorasone 0.0 nM, Clotrimazole 1.000 μM), 19.90%; in series [1] (Diflorasone 0.0 nM, Clotrimazole 2.000 μM), 30.02%.
